Laboratory results taken from patent US8846653B2, “Delta-tocotrienol treatment and prevention of pancreatic cancer” (University of South Florida, priority 2006, dated 2014).

Legend:
Format in all cases: cell-based, human
BXPC3 cells = experiment: MTT assay of BXPC3 cultures, single 50 μM dose; design: MTT assay result, run 1 / MTT assay result, run 2 / MTT assay result, run 3 / MTT assay result, run 4 / MTT assay result, run 5 / MTT assay result, run 6 / MTT assay result, run 7 / MTT assay result, av (average) / MTT assay result, av-blank / MTT assay result, av: unit not given here; conditions: BXPC3, 50 μM; for MTT assay result, av-blank: average minus blank
Description: BXPC3 cells were cultured in complete […] media containing 10% fetal bovine serum (FBS) and 1% penicillin-streptomycin, and 1% L-glutamine. BxPc-3 pancreatic cancer cells were cultured in complete RPMI media containing 10% fetal bovine serum (FBS), and 1% penicillin-streptomycin, 1% HEPES buffer, 1% sodium pyruvate and 1% L-glutamine HPDE6-C7 cells were cultured in serum-free keratinocyte SFM media. All cells were maintained at 37° C. in a humidified incubator with 5% CO2. The cells were treated with a single 50 μM dose of vehicle (vehicle only, may be a solvent), T3 alpha (alpha tocotrienol), T3 beta (beta tocotrienol), T3 gamma (gamma tocotrienol), T3 delta (delta tocotrienol), T alpha (alpha tocopherol), T beta (beta tocopherol), TS (tocopherol succinate), GG (geranylgeraniol), SA (succinic acid). A control (no treatment) culture was grown alongside the treatments for comparison. Cell viability was measured using MTT assay at preselect times of 48 or 120 hours after treatment.

MiaPaCa-2 cells = experiment: MTT assay of MiaPaCa2 cultures, single 50 μM dose; design: rel amt (relative value set to the control): unit not given here; conditions: MiaPaCa2, 50 μM; for MTT assay result, av-blank: average minus blank; for MTT assay result, av: average of 7 runs
Description: MiaPaCa-2, BxPc-3, and HPDE6-C7 cells were cultured as described above, and treated with a single 50 μM dose of vehicle (ethanol extracted olive oil), T3 alpha (alpha tocotrienol), T3 beta (beta tocotrienol), T3 gamma (gamma tocotrienol), T3 delta (delta tocotrienol), T alpha (alpha tocopherol), T beta (beta tocopherol), TS (tocopherol succinate), GG (geranylgeraniol), SA (succinic acid). A control culture (vehicle only with no treatment) was grown alongside the treatments for comparison. Cell viability was measured using MTT assay at preselect times of 48 or 120 hours after treatment.

[1] = system: SW1990 pancreatic cancer cells; experiment: MTS assay of SW1990 cultures, single 50 μM dose; conditions: SW1990, 50 μM
Description: SW1990 pancreatic cancer cells […] were cultured in complete DMEM media containing 10% fetal bovine serum (FBS) and 1% penicillin-streptomycin, and 1% L-glutamine. BxPc-3 pancreatic cancer cells were cultured in complete RPMI media containing 10% fetal bovine serum (FBS), and 1% penicillin-streptomycin, 1% HEPES buffer, 1% sodium pyruvate and 1% L-glutamine. HPDE6-C7 cells were cultured in serum-free keratinocyte SFM media. All cells were maintained at 37° C. in a humidified incubator with 5% CO2. The cells were treated with a single 50 μM dose of vehicle (ethanol extracted olive oil), T3 alpha (alpha tocotrienol), T3 beta (beta tocotrienol), T3 gamma (gamma tocotrienol), T3 delta (delta tocotrienol), T alpha (alpha tocopherol), T beta (beta tocopherol), TS (tocopherol succinate), GG (geranylgeraniol), SA (succinic acid). A control culture (i.e., only vehicle with no treatment) was grown alongside the treatments for comparison. Cell viability was measured using MTS assay at preselect times of 24, 48, or 72 hours after treatment.

Structure (SMILES): CC(C)=CCC/C(C)=C/CC/C(C)=C/CC[C@]1(C)CCc2cc(O)c(C)c(C)c2O1 [T3 gamma, gamma tocotrienol]
- rel amt (relative value set to the control) (BXPC3 cells; 48 hours): 99
- MTT assay result, av-blank (BXPC3 cells; 48 hours): 0.226
- MTT assay result, av (average) (BXPC3 cells; 48 hours, average of 7 runs): 0.275
- MTT assay result, run 1 (BXPC3 cells; 48 hours): 0.259
- MTT assay result, run 2 (BXPC3 cells; 48 hours): 0.257
- MTT assay result, run 3 (BXPC3 cells; 48 hours): 0.289
- MTT assay result, run 4 (BXPC3 cells; 48 hours): 0.279
- MTT assay result, run 5 (BXPC3 cells; 48 hours): 0.268
- MTT assay result, run 6 (BXPC3 cells; 48 hours): 0.292
- MTT assay result, run 7 (BXPC3 cells; 48 hours): 0.283
- rel amt (relative value set to the control) (BXPC3 cells; 120 hours (5 days)): 66
- MTT assay result, av-blank (BXPC3 cells; 120 hours (5 days)): 0.377
- MTT assay result, av (BXPC3 cells; 120 hours (5 days), average of 7 runs): 0.432
- MTT assay result, run 1 (BXPC3 cells; 120 hours (5 days)): 0.418
- MTT assay result, run 2 (BXPC3 cells; 120 hours (5 days)): 0.446
- MTT assay result, run 3 (BXPC3 cells; 120 hours (5 days)): 0.446
- MTT assay result, run 4 (BXPC3 cells; 120 hours (5 days)): 0.457
- MTT assay result, run 5 (BXPC3 cells; 120 hours (5 days)): 0.428
- MTT assay result, run 6 (BXPC3 cells; 120 hours (5 days)): 0.412
- MTT assay result, run 7 (BXPC3 cells; 120 hours (5 days)): 0.42
- rel amt (relative value set to the control) (MiaPaCa-2 cells; 48 hours): 40
- MTT assay result, av-blank (MiaPaCa-2 cells; 48 hours): 0.124
- MTT assay result, av (MiaPaCa-2 cells; 48 hours): 0.170
- MTT assay result, run 1 (MiaPaCa-2 cells; 48 hours): 0.185
- MTT assay result, run 2 (MiaPaCa-2 cells; 48 hours): 0.181
- MTT assay result, run 3 (MiaPaCa-2 cells; 48 hours): 0.156
- MTT assay result, run 4 (MiaPaCa-2 cells; 48 hours): 0.183
- MTT assay result, run 5 (MiaPaCa-2 cells; 48 hours): 0.21
- MTT assay result, run 6 (MiaPaCa-2 cells; 48 hours): 0.141
- MTT assay result, run 7 (MiaPaCa-2 cells; 48 hours): 0.137
- rel amt (relative value set to the control) (MiaPaCa-2 cells; 120 hours (5 days)): 2
- MTT assay result, av-blank (MiaPaCa-2 cells; 120 hours (5 days)): 0.042
- MTT assay result, av (MiaPaCa-2 cells; 120 hours (5 days)): 0.094
- MTT assay result, run 1 (MiaPaCa-2 cells; 120 hours (5 days)): 0.088
- MTT assay result, run 2 (MiaPaCa-2 cells; 120 hours (5 days)): 0.084
- MTT assay result, run 3 (MiaPaCa-2 cells; 120 hours (5 days)): 0.098
- MTT assay result, run 4 (MiaPaCa-2 cells; 120 hours (5 days)): 0.089
- MTT assay result, run 5 (MiaPaCa-2 cells; 120 hours (5 days)): 0.12
- MTT assay result, run 6 (MiaPaCa-2 cells; 120 hours (5 days)): 0.084
- MTT assay result, run 7 (MiaPaCa-2 cells; 120 hours (5 days)): 0.092
- rel amnt (relative value set to the control) ([1]; 24 hours): 107
- MTS assay result, run 1 ([1]; 24 hours): 0.169
- MTS assay result, run 2 ([1]; 24 hours): 0.161
- MTS assay result, run 3 ([1]; 24 hours): 0.163
- MTS assay result, run 4 ([1]; 24 hours): 0.143
- MTS assay result, run 5 ([1]; 24 hours): 0.15
- MTS assay result, run 6 ([1]; 24 hours): 0.158
- MTS assay result, run 7 ([1]; 24 hours): 0.159
- MTS assay result, run 8 ([1]; 24 hours): 0.151
- MTS assay result, run 9 ([1]; 24 hours): 0.157
- rel amnt (relative value set to the control) ([1]; 48 hours): 89
- MTS assay result, run 1 ([1]; 48 hours): 0.114
- MTS assay result, run 2 ([1]; 48 hours): 0.125
- MTS assay result, run 3 ([1]; 48 hours): 0.13
- MTS assay result, run 4 ([1]; 48 hours): 0.123
- MTS assay result, run 5 ([1]; 48 hours): 0.137
- MTS assay result, run 6 ([1]; 48 hours): 0.137
- MTS assay result, run 7 ([1]; 48 hours): 0.16
- MTS assay result, run 8 ([1]; 48 hours): 0.16
- MTS assay result, run 9 ([1]; 48 hours): 0.135
- rel amnt (relative value set to the control) ([1]; 72 hours): 177
- MTS assay result, run 1 ([1]; 72 hours): 0.776
- MTS assay result, run 2 ([1]; 72 hours): 0.744
- MTS assay result, run 3 ([1]; 72 hours): 0.88
- MTS assay result, run 4 ([1]; 72 hours): 0.734
- MTS assay result, run 5 ([1]; 72 hours): 0.812
- MTS assay result, run 6 ([1]; 72 hours): 0.817
- MTS assay result, run 7 ([1]; 72 hours): 0.77
- MTS assay result, run 8 ([1]; 72 hours): 0.759
- MTS assay result, run 9 ([1]; 72 hours): 0.786
